Experimental data reported in paper PMC8617031, “Development of a BCL-xL and BCL-2 dual degrader with improved anti-leukemic activity,” (Nature Communications, 2021).
Values joined by “and” are separate entries in the source; they are usually repeats but may differ in a detail not shown here. Identical values can stand only once.

Assays:
[1] = test system: HiBit-BCL-xL-WT/K157-only/K-ko with HaloTag-VHL; test: NanoBRET ternary complex formation of WT, K157-only and K-ko BCL-xL with VHL and DT2216 in 293T cells; assay type: cell-based, human; settings: triplicate wells
Description: Plasmids HaloTag-VHL (Cat. No. CS1679C155) and CMV HiBit (Cat. No. CS1956B03) were purchased from Promega. HiBit-BCL-xL and HiBit-BCL-2 were constructed previously. The two mutants (HiBit-BCL-xL-K157-only and HiBit-BCL-xL-K-ko) were constructed through Gibson assembly method. The primer pair (5′-[…]-3′ and 5′-[…]c[…]-3′) and the template Flag-BCL-xL-K157-only or Flag-BCL-xL-K-ko (pDL2129)[2] were used to clone the BCL-xL-K157-only-containing and BCL-xL-K-ko-containing fragments, respectively. The primer pair (5′-[…]g[…]-3′ and 5′-[…]-3′) and pBit3.1-N (Cat. No. N2361, Promega) were used to clone the vector-containing fragment. The PCR fragments were assembled using NEBuilder® HiFi DNA Assembly Master Mix (Cat. No. E2621, NEB, Ipswich, MA, USA). DNA sequences in all these plasmids were authenticated by automatic sequencing. […] After 24 h, 2 × 10^4 transfected cells were seeded into white 96-well tissue culture plates in Gibco™ Opti-MEM™ I Reduced Serum Medium, No Phenol Red (Cat. No. 11-058-021, Fisher) containing 4% FBS with or without HaloTag NanoBRET 618 Ligand (Cat. No. PRN1662, Promega) and incubated overnight at 37 °C, 5% CO2. The following day, serial diluted compounds were added into the medium and plates were incubated at 37 °C, 5% CO2, for 6 h. After treatment, NanoBRET Nano-Glo Substrate (cat. no. N1662, Promega) was added into the medium, and the contents were mixed by shaking the plate for 30 s before measuring donor and acceptor signals on Biotek plate reader. Dual-filtered luminescence was collected with a 450/50 nm bandpass filter (donor, NanoBiT-BCL-XL protein or NanoBiT-BCL-2 protein) and a 610-nm longpass filter (acceptor, HaloTag NanoBRET ligand) using an integration time of 0.5 s. mBRET ratios were calculated following the NanoBRET™ Nano-Glo® Detection System (Cat. No. N1662, Promega).
Supplementary Fig. 3. […] WT represents wild type HiBit-BCL-xL; K157-only means that all the surface lysines on BCL-xL are mutated to arginines except K157; K-ko represents that all the surface lysines on BCL-xL are mutated to arginines. Data are expressed as mean ± s.e.m. of three biological replicates. Source data are provided as a Source Data file.

BCL2L1 mRNA = test: RT-qPCR of BCL2L1 mRNA in 293T cells; assay type: cell-based, human; settings: for BCL2L1 relative mRNA level: single replicate, relative to 0 uM control, Supplementary Fig. 7a
Experimental: Total RNA was extracted using RNeasy Plus Mini Kit (Qiagen, Cat. No. 74134). Reverse transcription was carried out by using High Capacity cDNA Reverse Transcription Kit (Invitrogen). Quantitative PCR (qPCR) was performed using an QuantStudioTM 5 Real-Time PCR System with SYBR Green. […] The PCR amplification protocol was initiated at 50 °C for 2 min followed by 3 min at 95 °C and 40 PCR cycles consisting of 5 s at 95 °C followed by 60 °C for 30 s. All samples were tested with the reference gene GAPDH for data normalization to correct for variations in RNA quality and quantity. The specificity of amplification of targets with high Ct values was confirmed by analysis of the temperature dissociation curves. Primers used for measuring gene transcriptional level: GAPDH primers (forward [NT] and reverse [NT]) were described previously. BCL2L1 primers are forward [NT] and reverse [NT]; BCL2 primers are forward [NT] and reverse[NT]. Supplementary Fig. 8. […] Hela cells were treated with different concentrations 753b for 16 h with or without the pan-caspase inhibitor QVD pretreatment. Representative immunoblots are shown in c-e. β-actin was used as an equal loading control in all immunoblot analyses. Source data are provided as a Source Data file.

human platelets = test: Viability (MTS) of human platelets; assay type: cell-based; settings: Supplementary Fig. 12b
Experimental: For the viability assays in human platelets, human platelet-rich plasma (PRP) was purchased from Zenbio (cat. no. SER-PRP-SDS). PRP was used for experiments immediately after delivery. PRP was transferred into 50-ml polypropylene tubes, each containing 5 ml acid citrate buffer (cat. no. sc-214744, Santa Cruz Biotechnology). […] After gently mixing the solution, platelets were pelleted by centrifugation at 1200 × g for 10 min. Pelleted platelets were gently washed without disruption in 2 ml HEPES-buffered Tyrode’s solution (10 mM HEPES, 135 mM NaCl, 2.8 mM KCl, 1 mM MgCl2, 2 mM CaCl2, 12 mM NaHCO3, 0.4 mM NaH2PO4, 0.25% BSA and 5.5 mM glucose, pH 7.4; cat. no. PY-921WB, Boston BioProducts) containing 1 µM PGE1 and 0.2 units ml^–1 apyrase. After washing, pellets were slowly resuspended in 10 ml HEPES-buffered Tyrode’s solution containing 1 µM PGE1 and 0.2 units ml–1 apyrase. The number of platelets was counted using a HEMAVET 950FS hematology analyzer (Drew Scientific, Inc.). For viability assays, platelet number was adjusted to 2 × 10^8 per ml in HEPES-buffered Tyrode’s solution containing 1 µM PGE1, 0.2 units ml^–1 apyrase and 10% FBS. […] After 72 h treatment, 200 µl of untreated or treated platelets were plated in each well of 96-well plates, and the viability was measured by MTS assay as described above.

Structure (SMILES): Cc1ncsc1-c1ccc([C@H](C)NC(=O)[C@@H]2C[C@@H](O)CN2C(=O)[C@@H](NC(=O)CCCCCC(=O)N2CCN(CC[C@H](CSc3ccccc3)Nc3ccc(S(=O)(=O)NC(=O)c4ccc(N5CCN(CC6=C(c7ccc(Cl)cc7)CCC(C)(C)C6)CC5)cc4)cc3S(=O)(=O)C(F)(F)F)CC2)C(C)(C)C)cc1 [DT2216]
- NanoBRET ratio (610/450, background-corrected), Ave of Read1 and Read2 ([1]; BCL-xL-K157-only, 0.004 uM): 10.7987 and 11.5766 and 10.5479
- NanoBRET ratio (610/450, background-corrected), Ave of Read1 and Read2 ([1]; BCL-xL-K157-only, 0.012 uM): 11.0721 and 10.709 and 10.6817
- NanoBRET ratio (610/450, background-corrected), Read1 ([1]; BCL-xL-K157-only, 0.333 uM): 10.8894 and 11.2489 and 10.7657
- NanoBRET ratio (610/450, background-corrected), Read2 ([1]; BCL-xL-K157-only, 0.333 uM): 10.7079 and 11.9043 and 10.3302
- NanoBRET ratio (610/450, background-corrected), Read1 ([1]; BCL-xL-K157-only, 1 uM): 11.6598 and 10.7529 and 10.4117
- NanoBRET ratio (610/450, background-corrected), Read2 ([1]; BCL-xL-K157-only, 1 uM): 10.4844 and 10.6651 and 10.9516
- NanoBRET ratio (610/450, background-corrected), Read1 ([1]; BCL-xL-K157-only, 3 uM): 10.1831 and 11.8895 and 11.1918
- NanoBRET ratio (610/450, background-corrected), Read2 ([1]; BCL-xL-K157-only, 3 uM): 9.289 and 10.911 and 11.6927
- NanoBRET ratio (610/450, background-corrected), Ave of Read1 and Read2 ([1]; BCL-xL-K-ko, 0.111 uM): 9.743 and 8.289 and 8.518
- NanoBRET ratio (610/450, background-corrected), Ave of Read1 and Read2 ([1]; BCL-xL-K-ko, 0.333 uM): 10.8261 and 11.8027 and 12.9139
- NanoBRET ratio (610/450, background-corrected), Read1 ([1]; BCL-xL-K-ko, 0.333 uM): 11.2191 and 11.4255 and 13.2322
- NanoBRET ratio (610/450, background-corrected), Read2 ([1]; BCL-xL-K-ko, 0.333 uM): 10.4332 and 12.18 and 12.5957
- NanoBRET ratio (610/450, background-corrected), Ave of Read1 and Read2 ([1]; BCL-xL-K-ko, 1 uM): 12.3201 and 11.4125 and 11.9637
- NanoBRET ratio (610/450, background-corrected), Read1 ([1]; BCL-xL-K-ko, 1 uM): 11.8556 and 11.5549 and 12.6815
- NanoBRET ratio (610/450, background-corrected), Read2 ([1]; BCL-xL-K-ko, 1 uM): 12.7845 and 11.2702 and 11.2459
- NanoBRET ratio (610/450, background-corrected), Ave of Read1 and Read2 ([1]; BCL-xL-K-ko, 3 uM): 11.1936 and 11.8549 and 13.734
- NanoBRET ratio (610/450, background-corrected), Read1 ([1]; BCL-xL-K-ko, 3 uM): 11.8587 and 11.5989 and 13.3819
- NanoBRET ratio (610/450, background-corrected), Read2 ([1]; BCL-xL-K-ko, 3 uM): 10.5286 and 12.111 and 14.0861
- NanoBRET ratio (610/450, background-corrected), Ave of Read1 and Read2 ([1]; BCL-xL-WT, 0.004 uM): 9.743 and 11.8617 and 10.3438
- NanoBRET ratio (610/450, background-corrected), Ave of Read1 and Read2 ([1]; BCL-xL-WT, 0.012 uM): 9.762 and 10.7766 and 10.2017
- NanoBRET ratio (610/450, background-corrected), Read1 ([1]; BCL-xL-WT, 0.333 uM): 9.95 and 12.5908 and 9.76
- NanoBRET ratio (610/450, background-corrected), Read2 ([1]; BCL-xL-WT, 0.333 uM): 9.537 and 11.1326 and 10.9276
- NanoBRET ratio (610/450, background-corrected), Read1 ([1]; BCL-xL-WT, 1 uM): 10.2229 and 10.6812 and 9.915
- NanoBRET ratio (610/450, background-corrected), Read2 ([1]; BCL-xL-WT, 1 uM): 9.301 and 10.872 and 10.4881
- NanoBRET ratio (610/450, background-corrected), Read1 ([1]; BCL-xL-WT, 3 uM): 9.528 and 10.0038 and 9.921
- NanoBRET ratio (610/450, background-corrected), Read2 ([1]; BCL-xL-WT, 3 uM): 9.235 and 10.9871 and 9.69

Structure (SMILES): Cc1ncsc1-c1ccc([C@H](C)NC(=O)[C@@H]2C[C@@H](O)CN2C(=O)[C@@H](NC(=O)CCCCCCC(=O)N2CCN(C[C@]3(C)CCC(c4ccc(Cl)cc4)=C(CN4CCN(c5ccc(C(=O)NS(=O)(=O)c6ccc(N[C@H](CCN7CCOCC7)CSc7ccccc7)c(S(=O)(=O)C(F)(F)F)c6)cc5)CC4)C3)CC2)C(C)(C)C)cc1 [753b]
- mRNA level of BCL2L1 (in words) (BCL2L1 mRNA; 293T cells, 16 h, qPCR): no significant changes
- BCL2L1 relative mRNA level (BCL2L1 mRNA; Conc 0.01 uM): 1.14 and 1.075 and 1.07
- BCL2L1 relative mRNA level (BCL2L1 mRNA; Conc 0.03 uM): 0.9425 and 1.0957 and 1.098
- BCL2L1 relative mRNA level (BCL2L1 mRNA; Conc 0.1 uM): 1.074 and 0.5752 and 1.058
- BCL2L1 relative mRNA level (BCL2L1 mRNA; Conc 0.3 uM): 1.107 and 0.8812 and 1.122
- BCL2L1 relative mRNA level (BCL2L1 mRNA; Conc 1 uM): 0.4863 and 0.4646 and 0.4492
- toxicity to platelets relative to ABT263 (human platelets): about three-fold less toxic to platelets than ABT263
